Measured values published in patent publication US20100035822A1, “PROLINE-RICH PEPTIDES, PHARMACEUTICAL COMPOSITION, USE OF ONE OR MORE PEPTIDES AND METHOD OF TREATMENT” (priority 2006, published 2010).
Entries after “also recorded” stand apart in the source; their conditions may differ. Square brackets hold non-standard residues; d marks the D form. Ends that are not written are not given here. Peptide text beside a SMILES is read from it. pGlu = O=C1CC[C@@H](C(=O)O)N1

Experiments:
[1] = Bioavailability / tissue distribution of 125I-labelled peptide in mice; format: in vivo, mouse
Description: Peptide SEQ ID NO 8 was labeled with ^125I according to Greenwood and Hunter (Greenwood F C and Hunter W M. The preparation of ^125I-labelled human growth hormone of high specific radioactivity. J. Biochem., 89:114-123, 1963), with modifications [Biscayart P L, Paladini A C, Vita N, Roguin L P. Preparation of ^125I-labeled human growth hormone of high quality binding properties endowed with long-term stability. J. Immunoassay, 10, 37-56, 1989; Ribela et al., Protein Exp. Purif., 18(2):115-200, 2000). Under constant shaking, 5 μg of the synthetic SEQ ID NO 8 peptide in PBS were mixed with 1 mCi of ^125I, and 0.8 μg of chloramines T. After 5 minutes, 1 μg metabisulfite and 200 μg potassium iodine were added to finalize the labeling reaction. Purification of the labeled product was performed by reverse-phase chromatography in a disposable micro-column (Sep-Pak C18, Waters) as described by Christophe et al. [Christophe et al., The synthetic peptide trp-lys-tyr-met-val-met-NH2 specifically activates neutrophils through FPRL1/lipoxin A4 receptors and is an agonist for the orphan monocyte-expressed chemoattractant receptor FPRL2. J. Biol. Chem. 276: 21585-21593, 2001]. The reaction product was diluted in three volumes of destined water, and applied to the column that had been pre-treated with destined water. Potassium iodine (5 mM, 20 mL) was added, and the column was washed twice with 20 mL distilled water. The labeled peptide was eluted with 2 mL 100% methanol, and 5 μl aliquots were analyzed in the gamma radiation counter from Nuclear Chicago. […]
The animals were anesthetized after 1, 5, 15, 30, 45, 60, 120 and 180 min after injection, and killed by cervical dislocation, and organs (heart, spleen, liver, kidney, intestines, stomach, thyroid, testicles, and brain) were removed, flushed free of blood with 0.9% saline, and weighed. The radioactivity of each organ was determined in a gamma counter. […]
The dose percentage present in each organ was determined, using an administered dose standard. Radioactivity values were registered, given in dose percentage/mg of tissue.

[2] = Determination of Z-pro metabolites in mice urine; format: in vivo, mouse; conditions: for Metabolites in the urine: mice, 0.91 mg/Kg intraperitoneally, urine collected after 24 hours, mass spectrometry
Procedure: In vivo hydrolysis of peptides SEQ ID NO 1, SEQ ID NO 4, SEQ ID NO 5, SEQ ID NO 8, and SEQ ID NO 15 was investigated in Swiss male mice weighing approximately 22-25 g, which had free access to food and water, and were kept under a light-dark cycle of 12 hour periods.
Groups of 10 mice were treated intraperitoneally with 0.91 mg/Kg of each proline rich oligopeptide per animal, diluted in 200 μl saline. Treated and control animals (not treated) were kept in metabolic cages, and their urine was collected after 24 hours. The urine was pre-purified in a reverse phase Sep-Pak C18 micro column (Waters), which had been previously equilibrated with solvent A (H2O/0.1% TFA). Samples were eluted with 60% solvent B (90% acetonitrile/10% solvent A), lyophilized, and resuspended in 1 ml deionized water to be centrifuged at 14.000 rpm for 5 minutes. The supernatant (500 μl) was fractionated in an analytic HPLC system. The gradient was 5-65% solvent B for 30 minutes, using a flow rate of 1 ml/min and monitoring at 214 nm. Fractions were lyophilized and ressuspended in acetonitrile/H2O (1:1), containing 0.2% formic acid, and were analyzed by mass spectrometry (Q-TOF-Pro). Urine fractions from control and treated animals were compared to determine the presence of metabolites originated from the peptides being tested.

[3] = target: T1, argininosuccinate synthase (AsS) (Mus musculus, UniProt P16460); experiment: Potentiation of argininosuccinate synthase activity (phosphate generated from ATP); format: biochemical; conditions: AsS activated by SEQ ID NO 8
T1 construct: Cytosolic and membrane fractions of the renal extract (100 mg/ml total protein) were applied to separate columns; from tissue; host or cells: Balb-c mouse kidney, cytosolic and membrane fractions
T1 sequence (P16460 1-412): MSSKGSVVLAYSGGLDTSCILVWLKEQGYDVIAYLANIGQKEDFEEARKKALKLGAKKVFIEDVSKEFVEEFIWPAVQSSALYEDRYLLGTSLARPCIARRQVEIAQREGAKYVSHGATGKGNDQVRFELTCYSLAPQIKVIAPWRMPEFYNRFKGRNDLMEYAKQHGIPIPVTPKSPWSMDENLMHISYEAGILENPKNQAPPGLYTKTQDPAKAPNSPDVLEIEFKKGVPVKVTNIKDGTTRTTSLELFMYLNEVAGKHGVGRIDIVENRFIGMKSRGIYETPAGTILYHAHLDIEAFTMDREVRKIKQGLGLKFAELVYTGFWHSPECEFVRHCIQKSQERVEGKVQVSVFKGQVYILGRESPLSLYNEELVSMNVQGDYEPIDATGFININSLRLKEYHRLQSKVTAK
Procedure: Activation of the AsS enzyme of Example 3 by peptide SEQ ID NO 8 was quantified in vitro according to Hao et al. [Hao G., Xie L., Gross S. S. Argininosuccinate synthetase is reversibly inactivated by S-nitrosylation in vitro and in vivo. J. Biol. Chem., 279:36192-36200 (2004)]. This method is based on measuring the quantity of phosphate generated from ATP, when pyrophosphatase is added to the reaction medium. Since the activity of the pyrophosphatase relates directly to the enzymatic activity of the AsS, the quantity of generated pyrophosphate is a direct measurement of the AsS activity.
The AsS enzyme (1 μg) was added to the reaction mixture containing 20 mM Tris-HCl, pH 7.8, 2 mM ATP, 2 mM citrulline, 2 mM aspartate, 6 mM MgCl2, 20 mM KCl, and 0.2 units of pyrophosphatase in a final volume of 200 μL in 96 well microplates. Increasing quantities of the SEQ ID NO 8 peptide (0.5, 1 to 8 μM) were added, and samples were incubated at 37° C. for 60 minutes. The reaction was interrupted by the addition of 200 μL of ammonium molybdate buffer (10 mM ascorbic acid, 2.5 mM ammonium molybdate, 2% sulphuric acid). Resulting phosphate was determined in the samples by spectrophotometry (absorbance at 650 nm), using a standard curve obtained with inorganic phosphate.
The production rate of phosphate (enzymatic activity of the AsS) was activated up to approximately 2.5 fold upon addition of 2 μM peptide SEQ ID NO 8. […] Accessibility of endothelial and inducible nitric oxide synthase to the intracellular citrulline-arginine regeneration pathway. Biochem. Pharmacol. 69: 97-104, 2005].

[4] = tested on: SK-N-AS cells (human neuroblastoma); experiment: Free intracellular Ca2+ concentration in SK-N-AS cells (fluo-3 AM, confocal microscopy); format: cell-based
Procedure: In these experiments the variation in free intracellular calcium [Ca^2+]i concentration was measured in SK-N-AS cells (human neuroblastoma, ATCC No. CRL-2137) after addition of 1 μmolar of peptides SEQ ID NO 1 or SEQ ID NO 8, or of 1 μmolar captopril. Cells were kept in DMEM (Dulbecco Modified Medium), supplemented with 10% fetal bovine serum (FBS) and 1% non-essential amino acids, at 5% CO2 atmosphere, at 37° C., and 95% relative humidity. Cells were treated with trypsin, and replicated at adequate cell concentrations.
Measurements of variation in the concentration of free [Ca^2+]i were performed with a confocal microscope LSM 510 (Zeiss, Jena, Germany), as described by Martins et al., (Martins et al., Neuronal differentiation of P19 embryonal carcinoma cells modulates kinin B2 receptor gene expression and function. J. Biol. Chem. 280: 19576-19586, 2005). Approximately 5×10^4 SK-N-AS cells were plated on 60 mm plates 24 hours prior to measurement, and then treated with 4 μM fluo-3 AM (Invitrogen Corporation) in 0.5% DMSO and 0.1% non-ionic surfactant pluronic acid F-127 for 30 minutes at 37° C. Cells were washed with DMEM containing 10% FBS, and transferred to defined medium (5 μg/ml insulin, 30 μg/ml transferrin, 20 μM ethanolamine, 30 nM sodium selenite, 1 μM sodium pyruvate, 1% non-essential amino acids, 1 mM glutamine, 100 μg/ml penicillin, 100 μg/ml streptomycin, 10 mM HEPES pH 7.4 in DMEM). The fluorescent fluo-3 AM was excited at 488 nm, and the fluorescence measured at 526 nm.
Variations in the [Ca^2+]i were measured in non-stimulated cells, and in cells stimulated with peptides SEQ ID NO 1 or SEQ ID NO 8, or with captopril (Sigma Aldrich). Increase of fluorescence was monitored for 2 minutes, and images were acquired in 256×256 pixels every second. At the end of each experiment, 5 μM ionophore (4-Br-A23187) were added, followed by 10 mM EGTA, or 20 μM digitonin to determine maximum and minimum fluorescence, Fmax and Fmin respectively, as described by Grynkiewicz et al., (1985).
Intracellular calcium concentrations [Ca^2+]i, related to fluorescence (F) values obtained after addition of peptides SEQ ID NO 1 or SEQ ID NO 8, were calculated with the equation: [Ca^2+]=Kd(F−Fmin)/(Fmax−F), assuming Kd=450 nM for fluo-3 AM (Hallett et al., 1990).

SEQ ID NO 8/^125I: synthetic oligopeptide SEQ ID NO 8 labeled with ^125I ([pGlu]NWPHPQIPP; also: 125I label, place not given here)
kidney concentration relative to other tissues per gram of tissue [1]: higher than 10 fold
share of the concentration of the injected dose remaining in the kidneys ([1]; kidney): approximately 15%
time the radioactivity remains in the kidneys ([1]; kidney): > 3 h

<EWGRPPGPPIPP [SEQ ID NO 14]
Metabolites in the urine [2]: <EWGRPPGPPIPP

CC[C@H](C)[C@H](NC(=O)[C@H](CCC(N)=O)NC(=O)[C@@H]1CCCN1C(=O)[C@H](CCCNC(=N)N)NC(=O)[C@@H]1CCCN1C(=O)[C@H](Cc1c[nH]c2ccccc12)NC(=O)[C@@H]1CCC(=O)N1)C(=O)N1CCC[C@H]1C(=O)N1CCC[C@H]1C(=O)O [SEQ ID NO 5, <EWPRPQIPP]
Metabolites in the urine ([2]; 0.91 mg/kg): <EWPRPQIP; also recorded: <EWPRP; also recorded: <EWPRPQIPP

CC(N)(CC(=O)O)C(=O)O (racemic) [MDLA, α-methyl-DL-aspartic acid, reference compound]
effect of the inhibitor on AsS activation by peptide SEQ ID NO 8 [3]: completely blocked; also recorded: completely inhibited

CC[C@H](C)[C@H](NC(=O)[C@@H]1CCCN1C(=O)CNC(=O)[C@H](CC(=O)O)NC(=O)[C@@H]1CCC(=O)N1)C(=O)N1CCC[C@H]1C(=O)N1CCC[C@H]1C(=O)O [SEQ ID NO 4, <EDGPIPP] ([pGlu]DGPIPP-OH)
Metabolites in the urine [2]: <EDGPIPP

<EKWAP [SEQ ID NO 1]
time from the peak until the [Ca2+]i plateau [4]: 20 s
change of intracellular [Ca2+]i ([4]; 1 μM): Increase
[Ca2+]i response peak ([4]; immediately after addition of the peptide): approximately 350 nM
form in which the peptide is excreted in urine ([2]; mice injected intraperitoneally): exception
Metabolites in the urine [2]: <EKW
